Three substances from article PMC8260761, “A bacteriocin-based treatment option for Staphylococcus haemolyticus biofilms” (Scientific Reports, 2021) can be followed below.

Assay [1] concerns planktonic S. haemolyticus. In kind it is cell-based, Staphylococcus haemolyticus. Here is the method: Synergistic interactions between antimicrobials were determined using the fractional inhibition concentration (FIC) as previously described. The FIC values were determined using a mirotiterplate checkerboard assay. Briefly, antimirobial A was applied in wells A1–H1 then diluted two-fold in wells 2–12. In a second microtiter plate, antimicrobial B was applied in wells A1–A12, then diluted two folds in wells B–H. Fifty μl of the serial diluted antimirobial A was transferred to the wells of a third microtiter plate, except for wells H1–H12. Similarly, 50 μl of the serial diluted antimicrobial B was transferred to the same microtiter plate, except for wells A1–A12. Wells H1-12 and wells A1-12 contained only one of the antimicrobials and was used to estimate the MIC value of the pure substance. After combining the antimicrobials, 100 μl of a 1:25 diluted O/N of S. haemolyticus was transferred to each well of the third microplate, while 50 μl of medium was added to wells H1-12 and A1-12. […] FIC values were calculated as follows: FIC = FICa + FICb + FICc, where the FICa means MIC of A in combination/MIC of A alone, FICb means MIC of B in combination/MIC of B, and FICc means MIC of C in combination/MIC of C alone. Effects were considered as synergistic if FIC was ≤ 0.5 for two components mixture[81] and ≤ 0.75 for three components mixture.

For assay [2], the system named is Staphylococcus haemolyticus strains. Briefly: Spot-on-lawn inhibition assay. The format is cell-based. Conditions: six S. haemolyticus strains 4068–4073; 0.04, 0.2 and 1.0 mg/ml, 5 µl spotted. Here is the method: (§1) A semi-quantitative spot-on-lawn inhibitory assay was performed on 51 bacterial indicator strains (Table S1) to determine the bacteriocins inhibition spectra. Overnight cultures were diluted 1:100 in BHI soft agar and distributed on BHI agar plates. Once solidified, bacteriocins with various concentrations were applied on designated spots. The plates were incubated at appropriate temperature O/N and inhibition zones were measured the following day. To determine minimal inhibitory concentration (MIC50) of H1 against clinical S. haemolyticus isolates (Table S2), as well as strains heterologously expressing RseP (Table S4), the microtiterplate antimicrobial assay was performed as previously described[41],[79]. MIC50 was defined as the minimal bacteriocin concentration needs to inhibit the growth of a bacterial strain by at least 50%.

In assay [3] the test system is L. plantarum WCFS1 strains (with or without S. haemolyticus RseP). In kind it is cell-based, Lactobacillus plantarum. The method, then:
as §1
rseP (Uniprot: Q4L5W4) derived from S. haemolyticus 7067_4_21 was heterologously expressed in the naturally H1-resistant L. plantarum WCFS1[36] using the vector pSIP expression system[84],[85]. First, pLp1261_InvS, a pSIP401 derivative[84],[86], was linearized using FastDigest Restrictiction Enzymes NdeI and Acc65I (ThermoFisher Scientific) to isolate the vector part. Second, rseP was amplified by PCR using specially designed In-Fusion Primes (Table S6), giving amplicons with complementary ends to the linearized vector. The In-Fusion HD cloning Kit (Takara Bio) was used to fuse rseP into the linearized vector, yielding pSIP401_SHRseP. The plasmid was subsequently transformed to E.coli TOP10 (ThermoFischer Scientific). Plasmid DNA from E. coli was isolated using NucleoSpin Plasmid Kit (Macherey–Nagel). The DNA sequence of all PCR amplified fragments was verified by sequencing at Eurofins GATC, Germany, and before being electroporated into L. plantarum WCSF1 following the procedure described by Aukrust and Blom[87].

Assay [4] relates to clinical and commensial S. haemolyticus isolates. The format is cell-based, Staphylococcus haemolyticus. Conditions: 5 h. Here is the method:
as §1

The mark [5] stands for this setting: S. haemolyticus 4068, planktonic cells, 5 h exposure.
[6] abbreviates: S. haemolyticus 4068, planktonic cells, 24 h exposure.
The mark [7] stands for this setting: S. haemolyticus 4068, planktonic cells, 48 h exposure.
[8] abbreviates: S. haemolyticus 4069, planktonic cells, 5 h exposure.
[9] abbreviates: S. haemolyticus 4069, planktonic cells, 24 h exposure.
Setting [10] is: S. haemolyticus 4069, planktonic cells, 48 h exposure.
[11] abbreviates: S. haemolyticus 4070, planktonic cells, 5 h exposure.
Setting [12] is: S. haemolyticus 4070, planktonic cells, 24 h exposure.
Where [13] appears, read: S. haemolyticus 4070, planktonic cells, 48 h exposure.
Where [14] appears, read: S. haemolyticus 4071, planktonic cells, 5 h exposure.
Setting [15] is: S. haemolyticus 4071, planktonic cells, 24 h exposure.
Setting [16] is: S. haemolyticus 4071, planktonic cells, 48 h exposure.
The mark [17] stands for this setting: S. haemolyticus 4072, planktonic cells, 5 h exposure.
Setting [18] is: S. haemolyticus 4072, planktonic cells, 24 h exposure.
The mark [19] stands for this setting: S. haemolyticus 4072, planktonic cells, 48 h exposure.
Where [20] appears, read: S. haemolyticus 4073, planktonic cells, 5 h exposure.
[21] abbreviates: S. haemolyticus 4073, planktonic cells, 24 h exposure.
The mark [22] stands for this setting: S. haemolyticus 4073, planktonic cells, 48 h exposure.

Like-named read-outs stand apart in the source and are kept apart here. Where no end group is shown, it is not given here. Where only a bound is given, the exact number is not on record here.

As to SCTTCVCTCSCCTT [MP1, micrococcin P1], the “MIC, individual component” value in assay [1] (setting [5]) was 0.02 µg/mL; in assay [1] (setting [6]) it was 0.023 µg/mL; in assay [1] (setting [7]), 0.078 µg/mL; in assay [1] (setting [8]), 0.15 µg/mL; in assay [1] (setting [9]), over 10 µg/mL; in assay [1] (setting [10]) it was over 10 µg/mL. Besides, the “MIC, individual component” value in assay [1] (setting [11]) is 0.02 µg/mL; in assay [1] (setting [12]) it was 0.33 µg/mL; in assay [1] (setting [13]), 0.13 µg/mL; in assay [1] (setting [14]), 0.043 µg/mL; in assay [1] (setting [15]), over 10 µg/mL; in assay [1] (setting [16]) it was over 10 µg/mL. Also, the “MIC, individual component” value in assay [1] (setting [17]) is 0.039 µg/mL; in assay [1] (setting [18]), over 10 µg/mL; in assay [1] (setting [19]) it was 0.63 µg/mL; in assay [1] (setting [20]), 0.022 µg/mL; in assay [1] (setting [21]) it was 0.072 µg/mL; in assay [1] (setting [22]) it was 0.14 µg/mL. In addition, the “Inhibition zones at three concentrations” value in assay [2] is recorded as “clear inhibition zones at all three concentrations”.

As to “MKFKFNPTGTIVKKLTQYEINWYKQQYGRYPWERPVA [H1]”, the “MIC50 over the tested strains” value in assay [1] (planktonic, 5 h) was 0.78 µg/mL. Further, the “MIC, individual component” value in assay [1] (planktonic, 24 h) is 0.78 µg/mL. Moreover, the “Minimal inhibitory concentration (MIC)” value in assay [3] (L. plantarum WCFS1) is over 50 µg/mL; in assay [3] (L. plantarum WCFS1/pEV, expressing empty vector) it was over 50 µg/mL; in assay [3] (L. plantarum WCFS1/pSIP401_SHRseP, expressing RseP from S. haemolyticus 7067_4_21) it was 0.39 µg/mL. Moreover, the “MIC50 against the different S. haemolyticus strains” value in assay [4] is 100 to 780 µg/mL.

As to garvicin KS [GarKS], the “MIC, individual component” value was 6.5 µg/mL in assay [1] (setting [5]); 24 µg/mL in assay [1] (setting [6]); 25 µg/mL in assay [1] (setting [7]); 3.3 µg/mL in assay [1] (setting [8]); 13 µg/mL in assay [1] (setting [9]); 26 µg/mL in assay [1] (setting [10]). The “MIC, individual component” value in assay [1] (setting [11]) amounted to 12 µg/mL; in assay [1] (setting [12]) it was 48 µg/mL; in assay [1] (setting [13]), 51 µg/mL; in assay [1] (setting [14]) it was 12.5 µg/mL; in assay [1] (setting [15]), 51 µg/mL; in assay [1] (setting [16]), 100 µg/mL. Further, the “MIC, individual component” value in assay [1] (setting [17]) was 23.6 µg/mL; in assay [1] (setting [18]), 49 µg/mL; in assay [1] (setting [19]) it was 52 µg/mL; in assay [1] (setting [20]) it was 12.5 µg/mL; in assay [1] (setting [21]) it was 51 µg/mL; in assay [1] (setting [22]) it was 51 µg/mL. In assay [2], the “Inhibition zones at three concentrations” value was “some inhibition was seen only at the highest concentration”.
